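Results reflect a 48-hour exposure of cells in 96-well plates to compound at five concentrations. The concentration for 50% growth inhibition is given as GI50. TGI denotes the concentration required for complete inhibition of growth.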
Key:
Experiment in all cases: inhibition of tumour cell growth, NCI panel, 48 h
SF-539 CNS = test system: SF-539 CNS
A498 renal = test system: A498 renal
NCI-H522 lung = test system: NCI-H522 lung
SNB-19 CNS = test system: SNB-19 CNS
A549 NSCLC = test system: A549 NSCLC
SW-620 colon = test system: SW-620 colon
HOP-62 NSCLC = test system: HOP-62 NSCLC
M14 melanoma = test system: M14 melanoma
SNB-75 CNS = test system: SNB-75 CNS
HOP-92 NSCLC = test system: HOP-92 NSCLC

CCOC(=O)CSc1nnc(C(Sc2nc(-c3ccccc3)c(-c3ccccc3)[nH]2)C(C)C)n1-c1ccccc1 (stereo not given)
TGI (SF-539 CNS): 18.8 µM
TGI (A498 renal): > 10 µM
TGI (NCI-H522 lung): 26.9 µM
TGI (SNB-19 CNS): > 31.6 µM
TGI (A549 NSCLC): > 31.6 µM
TGI (SW-620 colon): > 31.6 µM
TGI (HOP-62 NSCLC): > 10 µM
TGI (M14 melanoma): 20.1 µM
TGI (SNB-75 CNS): > 10 µM
TGI (HOP-92 NSCLC): > 10 µM

O[C@H]1[C@H](O)[C@@H](O)[C@@]2(O)C[C@@H](O)[C@@H]1N2
TGI (SF-539 CNS): > 100 µM
TGI (A498 renal): > 100 µM
TGI (NCI-H522 lung): > 100 µM
TGI (SNB-19 CNS): > 100 µM
TGI (A549 NSCLC): > 100 µM
TGI (SW-620 colon): > 100 µM
TGI (HOP-62 NSCLC): > 100 µM
TGI (M14 melanoma): > 100 µM
TGI (SNB-75 CNS): > 100 µM
TGI (HOP-92 NSCLC): > 100 µM

CCOc1cc(NC(C)=O)ccc1C(=O)NN1C(=O)C(Cl)C1c1ccco1 (stereo not given)
TGI (SF-539 CNS): 38 µM
TGI (A498 renal): 30.8 µM
TGI (NCI-H522 lung): 25.5 µM
TGI (SNB-19 CNS): 32.1 µM
TGI (A549 NSCLC): 38.8 µM
TGI (SW-620 colon): > 100 µM
TGI (HOP-62 NSCLC): 35.7 µM
TGI (M14 melanoma): 36.8 µM
TGI (SNB-75 CNS): 26.7 µM
TGI (HOP-92 NSCLC): 35.3 µM

N#C/C(=C\c1c[nH]c2ccccc12)C(=O)c1ccc(O)c(O)c1
TGI (SF-539 CNS): > 83.7 µM
TGI (A498 renal): > 100 µM
TGI (NCI-H522 lung): > 93 µM
TGI (SNB-19 CNS): 98.1 µM
TGI (A549 NSCLC): 98.7 µM
TGI (SW-620 colon): > 100 µM
TGI (HOP-62 NSCLC): > 61.5 µM
TGI (M14 melanoma): > 100 µM
TGI (SNB-75 CNS): > 100 µM
TGI (HOP-92 NSCLC): 99.2 µM

Cc1cc(NCCCCCCCNc2cc(C)nc3cc([N+](=O)[O-])ccc23)c2ccc([N+](=O)[O-])cc2n1
TGI (SF-539 CNS): 39.5 µM
TGI (A498 renal): 30.4 µM
TGI (NCI-H522 lung): 2.78 µM
TGI (SNB-19 CNS): 39.5 µM
TGI (A549 NSCLC): 9.41 µM
TGI (SW-620 colon): 4.61 µM
TGI (HOP-62 NSCLC): 42 µM
TGI (M14 melanoma): 41.2 µM
TGI (SNB-75 CNS): 40.9 µM
TGI (HOP-92 NSCLC): 47 µM

CC1OC(O[C@H]2/C=C/C=C/C=C/C=C/C=C/C=C/C=C/[C@H](C)[C@@H](O)[C@@H](C)[C@H](C)OC(=O)CC(O)CC(O)CCC(O)C(O)CC(O)C[C@]3(O)C[C@H](O)C(C(=O)O)C(C2)O3)C(O)[C@H](N)C1O (stereo not given in full)
GI50 (SF-539 CNS): 2.92 µM
TGI (SF-539 CNS): 11.6 µM
GI50 (A498 renal): 12 µM
TGI (A498 renal): 25.9 µM
GI50 (NCI-H522 lung): 2.58 µM
TGI (NCI-H522 lung): 6.02 µM
GI50 (SNB-19 CNS): 2.57 µM
TGI (SNB-19 CNS): 6.52 µM
GI50 (A549 NSCLC): 1.67 µM
TGI (A549 NSCLC): 3.11 µM
GI50 (SW-620 colon): 2.58 µM
TGI (SW-620 colon): 7.73 µM
GI50 (HOP-62 NSCLC): 1.57 µM
TGI (HOP-62 NSCLC): 3.11 µM
GI50 (M14 melanoma): 2.57 µM
TGI (M14 melanoma): 5.96 µM
GI50 (SNB-75 CNS): 25.3 µM
TGI (SNB-75 CNS): > 100 µM
GI50 (HOP-92 NSCLC): 3.16 µM
TGI (HOP-92 NSCLC): 15.6 µM

CCC[C@H](C)C[C@H](C)C[C@H](C)/C=C(\C)[C@@H](O)[C@@H](C)C(=O)CC
TGI (SF-539 CNS): 37 µM
TGI (A498 renal): 42.6 µM
TGI (NCI-H522 lung): 36.4 µM
TGI (SNB-19 CNS): 36.1 µM
TGI (A549 NSCLC): 39.4 µM
TGI (SW-620 colon): 43 µM
TGI (HOP-62 NSCLC): 35.2 µM
TGI (M14 melanoma): 35.7 µM
TGI (SNB-75 CNS): > 100 µM
TGI (HOP-92 NSCLC): 38.3 µM

O=c1onc2c3ccccc3ncn12
TGI (SF-539 CNS): > 100 µM
TGI (A498 renal): > 100 µM
TGI (NCI-H522 lung): > 100 µM
TGI (SNB-19 CNS): > 100 µM
TGI (A549 NSCLC): > 100 µM
TGI (SW-620 colon): > 100 µM
TGI (HOP-62 NSCLC): > 100 µM
TGI (M14 melanoma): > 100 µM
TGI (SNB-75 CNS): > 100 µM
TGI (HOP-92 NSCLC): > 100 µM

C[C@H]1C=C2[C@@H]3CC(C)(C(=O)O)CC[C@]3(C)CC[C@]2(C)[C@]2(C)CC[C@H]3C(C)(C)[C@@H](OC(=O)c4cccc5c(=O)c6ccccc6[nH]c45)CC[C@]3(C)[C@@H]12 (stereo not given in full)
TGI (SF-539 CNS): > 100 µM
TGI (A498 renal): > 100 µM
TGI (NCI-H522 lung): > 100 µM
TGI (SNB-19 CNS): > 100 µM
TGI (A549 NSCLC): > 100 µM
TGI (SW-620 colon): > 100 µM
TGI (HOP-62 NSCLC): > 100 µM
TGI (M14 melanoma): > 100 µM
TGI (SNB-75 CNS): > 100 µM
TGI (HOP-92 NSCLC): > 100 µM

COc1ccc(/C=C2\CN(C)C/C(=C\c3ccc(OC)c(OC)c3OC)C2=O)c(OC)c1OC
TGI (SF-539 CNS): 0.311 µM
TGI (A498 renal): 0.313 µM
TGI (NCI-H522 lung): 0.473 µM
TGI (SNB-19 CNS): 1.2 µM
TGI (A549 NSCLC): 1.07 µM
TGI (SW-620 colon): 0.425 µM
TGI (HOP-62 NSCLC): 0.84 µM
TGI (M14 melanoma): 0.283 µM
TGI (SNB-75 CNS): 2.64 µM
TGI (HOP-92 NSCLC): 1.73 µM

COc1cc2c(cc1OC)C1(c3ccc(Cl)cc3)ON=C(c3ccccc3)N1CS2 (stereo not given)
TGI (SF-539 CNS): > 100 µM
TGI (A498 renal): > 100 µM
TGI (NCI-H522 lung): > 100 µM
TGI (SNB-19 CNS): > 100 µM
TGI (A549 NSCLC): > 100 µM
TGI (SW-620 colon): > 100 µM
TGI (HOP-62 NSCLC): > 100 µM
TGI (M14 melanoma): > 100 µM
TGI (SNB-75 CNS): > 100 µM
TGI (HOP-92 NSCLC): > 100 µM

[N-]=[N+]=C1C(=O)C2CC3CC(C2)CC1C3
TGI (SF-539 CNS): > 100 µM
TGI (A498 renal): > 100 µM
TGI (NCI-H522 lung): > 100 µM
TGI (SNB-19 CNS): > 100 µM
TGI (A549 NSCLC): > 100 µM
TGI (SW-620 colon): > 100 µM
TGI (HOP-62 NSCLC): > 100 µM
TGI (M14 melanoma): > 100 µM
TGI (SNB-75 CNS): > 100 µM
TGI (HOP-92 NSCLC): > 100 µM

Cc1ccc(CC(C)N)cc1 (stereo not given)
TGI (SF-539 CNS): > 100 µM
TGI (A498 renal): > 100 µM
TGI (NCI-H522 lung): > 100 µM
TGI (SNB-19 CNS): > 100 µM
TGI (A549 NSCLC): > 100 µM
TGI (SW-620 colon): > 100 µM
TGI (HOP-62 NSCLC): > 100 µM
TGI (M14 melanoma): > 100 µM
TGI (SNB-75 CNS): > 100 µM
TGI (HOP-92 NSCLC): > 100 µM

COc1cc(-c2cc(-c3cc([N+](=O)[O-])c(/C=N/NC(=O)c4ccncc4)o3)ccc2OC)ccc1C
TGI (SF-539 CNS): > 100 µM
TGI (A498 renal): > 100 µM
TGI (NCI-H522 lung): > 100 µM
TGI (SNB-19 CNS): > 100 µM
TGI (A549 NSCLC): > 100 µM
TGI (SW-620 colon): > 100 µM
TGI (HOP-62 NSCLC): > 100 µM
TGI (M14 melanoma): > 100 µM
TGI (SNB-75 CNS): > 100 µM
TGI (HOP-92 NSCLC): > 100 µM

COc1cccc(NC(=O)C(C#N)=C(SC)SC)c1
TGI (SF-539 CNS): > 100 µM
TGI (A498 renal): > 100 µM
TGI (NCI-H522 lung): > 100 µM
TGI (SNB-19 CNS): > 100 µM
TGI (A549 NSCLC): > 100 µM
TGI (SW-620 colon): > 100 µM
TGI (HOP-62 NSCLC): > 100 µM
TGI (M14 melanoma): > 100 µM
TGI (SNB-75 CNS): > 100 µM
TGI (HOP-92 NSCLC): > 100 µM

CC(C)(C)c1cc(C2COC(c3cc(C(C)(C)C)c(O)c(C(C)(C)C)c3)CO2)cc(C(C)(C)C)c1O (stereo not given)
TGI (SF-539 CNS): > 100 µM
TGI (A498 renal): > 100 µM
TGI (NCI-H522 lung): > 100 µM
TGI (SNB-19 CNS): > 100 µM
TGI (A549 NSCLC): > 100 µM
TGI (SW-620 colon): > 100 µM
TGI (HOP-62 NSCLC): > 100 µM
TGI (M14 melanoma): > 100 µM
TGI (SNB-75 CNS): > 100 µM
TGI (HOP-92 NSCLC): > 100 µM
